We go through 33 compounds from ChEMBL document CHEMBL2057077, “Exploration of pipecolate sulfonamides as binders of the FK506-binding proteins 51 and 52” (J Med Chem, 2012).

Assay [1] addresses Peptidyl-prolyl cis-trans isomerase FKBP1A (Homo sapiens, UniProt P62942). As to the kind of experiment: Binding affinity to FKBP12 by competitive fluorescence polarization assay. For orientation: In fluorescence polarisation assays a small probe gives low polarisation when free and higher when bound to something large.
In assay [2] the target is T1, Peptidyl-prolyl cis-trans isomerase FKBP4 (Homo sapiens, UniProt Q02790).
T1 sequence (Q02790 whole entry): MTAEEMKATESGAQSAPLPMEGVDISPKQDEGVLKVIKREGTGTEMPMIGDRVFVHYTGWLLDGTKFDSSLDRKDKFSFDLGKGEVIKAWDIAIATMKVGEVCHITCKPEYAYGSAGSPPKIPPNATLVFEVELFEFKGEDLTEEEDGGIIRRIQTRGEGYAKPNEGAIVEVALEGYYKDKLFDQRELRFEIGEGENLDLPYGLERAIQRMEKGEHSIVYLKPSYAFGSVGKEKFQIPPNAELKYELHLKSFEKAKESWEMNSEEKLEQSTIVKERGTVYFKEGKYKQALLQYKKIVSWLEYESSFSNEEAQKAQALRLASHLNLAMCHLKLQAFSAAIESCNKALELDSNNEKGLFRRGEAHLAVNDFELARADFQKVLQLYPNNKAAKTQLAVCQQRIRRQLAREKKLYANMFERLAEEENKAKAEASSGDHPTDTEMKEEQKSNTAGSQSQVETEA
As to the kind of experiment: Binding affinity to FKBP52 FK1 domain by competitive fluorescence polarization assay.

In assay [3] the target is T2, Peptidyl-prolyl cis-trans isomerase FKBP5 (Homo sapiens, UniProt Q13451).
T2 sequence (Q13451 whole entry): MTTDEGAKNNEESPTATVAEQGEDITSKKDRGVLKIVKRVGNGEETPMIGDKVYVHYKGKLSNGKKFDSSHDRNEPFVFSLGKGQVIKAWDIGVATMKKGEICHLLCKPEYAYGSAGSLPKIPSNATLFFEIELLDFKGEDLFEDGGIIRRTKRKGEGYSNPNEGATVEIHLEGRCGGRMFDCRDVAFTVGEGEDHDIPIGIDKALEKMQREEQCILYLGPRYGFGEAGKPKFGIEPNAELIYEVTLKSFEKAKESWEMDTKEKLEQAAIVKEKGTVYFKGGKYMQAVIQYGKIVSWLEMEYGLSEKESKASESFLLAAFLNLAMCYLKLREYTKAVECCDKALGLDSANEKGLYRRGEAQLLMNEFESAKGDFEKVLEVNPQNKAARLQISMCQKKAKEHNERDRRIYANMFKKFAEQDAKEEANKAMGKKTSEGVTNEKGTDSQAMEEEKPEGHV
Briefly: Binding affinity to FKBP51 FK1 domain by competitive fluorescence polarization assay.

Chain of Peptidyl-prolyl cis-trans isomerase FKBP1A (P62942 whole entry): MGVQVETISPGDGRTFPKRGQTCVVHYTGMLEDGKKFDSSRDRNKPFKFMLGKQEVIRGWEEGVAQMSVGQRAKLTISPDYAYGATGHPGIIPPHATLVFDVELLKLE

For orientation: IC50 means the midpoint of a concentration-inhibition curve. As for `COc1ccc(CC[C@@H](OC(=O)[C@@H]2CCCCN2S(=O)(=O)c2ccc(-c3ncccn3)cc2)c2cccc(OCC(=O)O)c2)cc1OC`, the IC50 was 1800 nM in assay [1] (read-out: IC50) and more than 100 µM in assay [2] (read-out: IC50).
On to `COc1ccc(CC[C@@H](OC(=O)[C@@H]2CCCCN2S(=O)(=O)c2cccc(Br)c2)c2cccc(OCC(=O)O)c2)cc1OC`, for which the IC50 in assay [1] (read-out: IC50) was 320 nM; in assay [2] (read-out: IC50) it was 15.7 µM; in assay [3] (read-out: IC50), 15.8 µM.
In the same order, the values of `COc1ccc(CC[C@@H](OC(=O)[C@@H]2CCCCN2S(=O)(=O)c2cc(Br)cc(C(F)(F)F)c2)c2cccc(OCC(=O)O)c2)cc1OC` are 2400 nM, more than 100 µM and more than 100 µM.
Consider `COc1ccc(CC[C@@H](OC(=O)[C@@H]2CCCCN2S(=O)(=O)c2cc(Cl)c(OC)c(Cl)c2)c2cccc(OCC(=O)O)c2)cc1OC`, for which the IC50 in assay [1] (read-out: IC50) stood at 230 nM.
`COc1ccc(CC[C@@H](OC(=O)[C@@H]2CCCCN2S(=O)(=O)c2ccc3[nH]c(=O)sc3c2)c2cccc(OCCN3CCOCC3)c2)cc1OC`: the IC50 turned out to be 3 nM in assay [1] (read-out: IC50), 3.41 µM in assay [2] (read-out: IC50) and 2.03 µM in assay [3] (read-out: IC50).
Take `COc1ccc(CC[C@@H](OC(=O)[C@@H]2CCCCN2S(=O)(=O)c2cc(Cl)c(OC)c(Cl)c2)c2cccc(OCCN3CCOCC3)c2)cc1OC`: the figures for the 50% inhibitory concentration (IC50) in assay [1] (read-out: IC50), in assay [2] (read-out: IC50) and in assay [3] (read-out: IC50) were more than 50000 nM, more than 50 µM and more than 50 µM, respectively.
On to `COc1ccc(OCCOC(=O)[C@@H]2CCCCN2S(=O)(=O)c2cc(Cl)cc(Cl)c2)cc1OC`, for which the IC50 in assay [1] (read-out: IC50) was more than 100000 nM; in assay [2] (read-out: IC50) it was more than 100 µM; in assay [3] (read-out: IC50), more than 100 µM.
As to `COc1ccc(CC[C@@H](OC(=O)[C@@H]2CCCCN2S(=O)(=O)c2cc(OC)c(OC)c(C(=O)O)c2)c2cccc(OCC(=O)O)c2)cc1OC`, the IC50 result in assay [1], in assay [2] and in assay [3] was “Not Active” in each case.
`COc1ccc(S(=O)(=O)N2CCCC[C@H]2C(=O)O[C@H](CCc2ccc(OC)c(OC)c2)c2cccc(OCC(=O)O)c2)cc1Cl`: the IC50 in assay [1] (read-out: IC50) was 600 nM; in assay [2] (read-out: IC50) it was 40.3 µM; in assay [3] (read-out: IC50), 29.6 µM.
On the same counts, the results for `COc1ccc(CC[C@@H](OC(=O)[C@@H]2CCCCN2S(=O)(=O)c2ccoc2)c2cccc(OCC(=O)O)c2)cc1OC` are 10100 nM, more than 100 µM and more than 100 µM.
`O=C(OC(CCCc1cccnc1)CCCc1cccnc1)[C@@H]1CCCCN1S(=O)(=O)c1cc(Cl)c(O)c(Cl)c1`: the IC50 amounted to 870 nM in assay [1] (read-out: IC50), 15.1 µM in assay [2] (read-out: IC50) and 9.69 µM in assay [3] (read-out: IC50).
In the case of `COc1ccc(CC[C@@H](OC(=O)[C@@H]2CCCCN2S(=O)(=O)c2ccc3ncsc3c2)c2cccc(OCC(=O)O)c2)cc1OC`, the IC50 in assay [1] (read-out: IC50) is 1100 nM; in assay [2] (read-out: IC50), 32.5 µM; in assay [3] (read-out: IC50), 11.6 µM.
On the same counts, the results for `COc1ccc(CC[C@@H](OC(=O)[C@@H]2CCCCN2S(=O)(=O)c2ccc3ncsc3c2)c2cccc(OCCN3CCOCC3)c2)cc1OC` are more than 50000 nM, more than 50 µM and more than 50 µM.
In the same order, the values of `CCC(C)(C)C(=O)C(=O)N1CCCC[C@H]1C(=O)O[C@H](CCc1ccc(OC)c(OC)c1)c1cccc(OCC(=O)O)c1` are 114 nM, 9.37 µM and 6.3 µM.
As to `COc1ccc(CC[C@@H](OC(=O)[C@@H]2CCCCN2S(=O)(=O)c2ccc3[nH]c(=O)sc3c2)c2cccc(OCC(=O)O)c2)cc1OC`, in assay [1] (read-out: IC50), the IC50 came to 21 nM.
Regarding `COc1ccc(CC[C@@H](OC(=O)[C@@H]2CCCCN2S(=O)(=O)c2cccc([N+](=O)[O-])c2)c2cccc(OCC(=O)O)c2)cc1OC`, the IC50 was 1900 nM in assay [1] (read-out: IC50), more than 100 µM in assay [2] (read-out: IC50) and 47.2 µM in assay [3] (read-out: IC50).
On to `COc1ccc(CC[C@@H](OC(=O)[C@@H]2CCCCN2S(=O)(=O)c2cc3c(c([N+](=O)[O-])c2)OCC3)c2cccc(OCC(=O)O)c2)cc1OC`, for which the IC50 in assay [1] (read-out: IC50) was 1500 nM.
For `COc1ccc(CC[C@@H](OC(=O)[C@@H]2CCCCN2S(=O)(=O)c2cc3ccccc3s2)c2cccc(OCC(=O)O)c2)cc1OC`, the IC50 in assay [1] (read-out: IC50) was 4600 nM; in assay [2] (read-out: IC50) it was more than 100 µM.
In the case of `COc1ccc(CC[C@@H](OC(=O)[C@@H]2CCCCN2S(=O)(=O)c2cc(F)cc(F)c2)c2cccc(OCC(=O)O)c2)cc1OC`, the values for the concentration for half-maximal inhibition (IC50) in assay [1] (read-out: IC50) and in assay [3] (read-out: IC50) were 1000 nM and 88.2 µM, respectively.
For the compound `COc1ccc(CC[C@@H](OC(=O)[C@@H]2CCCCN2S(=O)(=O)c2cccc(-c3ccnc(C)n3)c2)c2cccc(OCC(=O)O)c2)cc1OC`, the IC50 in assay [1] (read-out: IC50) was 8100 nM; in assay [2] (read-out: IC50) it was more than 100 µM; in assay [3] (read-out: IC50) it was more than 100 µM.
In the case of `COc1ccc(CC[C@@H](OC(=O)[C@@H]2CCCCN2S(=O)(=O)c2cccc(-c3ccncn3)c2)c2cccc(OCC(=O)O)c2)cc1OC`, the 50% inhibitory concentration (IC50) in assay [1] (read-out: IC50) was 9100 nM; in assay [2] (read-out: IC50), more than 100 µM; in assay [3] (read-out: IC50), more than 100 µM.
`COc1ccc(CC[C@@H](OC(=O)[C@@H]2CCCCN2S(=O)(=O)c2cc(Cl)c(O)c(Cl)c2)c2cccc(OCCN3CCOCC3)c2)cc1OC`: in assay [1] (read-out: IC50), the IC50 is 115 nM.
`COc1ccc(CC[C@@H](NC(=O)[C@@H]2CCCCN2S(=O)(=O)c2cc(Cl)c(O)c(Cl)c2)c2cccc(OCC(=O)O)c2)cc1OC`: the IC50 was more than 100000 nM in assay [1] (read-out: IC50), more than 100 µM in assay [2] (read-out: IC50) and more than 100 µM in assay [3] (read-out: IC50).
As for `COc1ccc(CC[C@@H](OC(=O)[C@@H]2CCCCN2S(=O)(=O)c2ccc3[nH]c(=O)oc3c2)c2cccc(OCC(=O)O)c2)cc1OC`, the results for the IC50 in assay [1] (read-out: IC50), in assay [2] (read-out: IC50) and in assay [3] (read-out: IC50) were 750 nM, more than 100 µM and more than 100 µM, respectively.
For the compound `COc1ccc(CC[C@@H](OC(=O)[C@@H]2CCCCN2S(=O)(=O)c2ccc3c(c2)CC(=O)N3)c2cccc(OCC(=O)O)c2)cc1OC`, the IC50 was 660 nM in assay [1] (read-out: IC50), more than 100 µM in assay [2] (read-out: IC50) and more than 100 µM in assay [3] (read-out: IC50).
In the case of `COc1ccc(CC[C@@H](OC(=O)[C@@H]2CCCCN2S(=O)(=O)c2cccc(F)c2)c2cccc(OCC(=O)O)c2)cc1OC`, the IC50 in assay [1] (read-out: IC50) was determined as 1090 nM; in assay [2] (read-out: IC50), 84.5 µM; in assay [3] (read-out: IC50), 54 µM.
In the case of `COc1ccc(CC[C@@H](NC(=O)[C@@H]2CCCCN2S(=O)(=O)c2ccc3[nH]c(=O)sc3c2)c2cccc(OCC(=O)O)c2)cc1OC`, the concentration for half-maximal inhibition (IC50) in assay [1] (read-out: IC50) is 1400 nM; in assay [2] (read-out: IC50), more than 100 µM; in assay [3] (read-out: IC50), more than 100 µM.
`COc1ccc(CC[C@@H](OC(=O)[C@@H]2CCCCN2S(=O)(=O)c2ccc(OC)c(OC)c2)c2cccc(OCC(=O)O)c2)cc1OC`: the values for the IC50 in assay [1] (read-out: IC50), in assay [2] (read-out: IC50) and in assay [3] (read-out: IC50) were 7600 nM, more than 100 µM and more than 100 µM, respectively.
As for `COc1ccc(CC[C@@H](OC(=O)[C@@H]2CCCCN2S(=O)(=O)c2cc(Cl)c(NC(C)=O)c(Cl)c2)c2cccc(OCC(=O)O)c2)cc1OC`, the IC50 in assay [1] (read-out: IC50) came to 1180 nM; in assay [2] (read-out: IC50) it was 20.5 µM; in assay [3] (read-out: IC50), 16.1 µM.
In the case of `COc1ccc(CC[C@@H](OC(=O)[C@@H]2CCCCN2S(=O)(=O)c2ccc3nc(C)sc3c2)c2cccc(OCC(=O)O)c2)cc1OC`, in assay [1] (read-out: IC50), the IC50 turned out to be 1200 nM.
The same measure, in the same setting: the result for `COc1ccc(CC[C@@H](OC(=O)[C@@H]2CCCCN2S(=O)(=O)c2cc(Cl)cc(Cl)c2)c2cccc(OCC(=O)O)c2)cc1OC` reads 800 nM; that for `COc1ccc(CC[C@@H](OC(=O)[C@@H]2CCCCN2S(=O)(=O)c2cc(Cl)c(NC(C)=O)c(Cl)c2)c2cccc(OCCN3CCOCC3)c2)cc1OC`, 450 nM.
Same read-out and setting: under `COc1ccc(CC[C@@H](OC(=O)[C@@H]2CCCCN2S(=O)(=O)c2cccc(Cl)c2)c2cccc(OCC(=O)O)c2)cc1OC` stands 1200 nM.
